In patent publication US20080311589A1, “METHOD OF HIGH-THROUGHPUT SCREENING OF MOLECULES AND COMPOUNDS FOR THEIR EFFECTS ON BIOLOGICAL AND CHEMICAL PROCESSES” (priority 1999, published 2008):
Entries after “also recorded” stand apart in the source; their conditions may differ.

Molecular target: T1, conventional kinesin (Homo sapiens, UniProt P33176)
T1 sequence (P33176 1-963): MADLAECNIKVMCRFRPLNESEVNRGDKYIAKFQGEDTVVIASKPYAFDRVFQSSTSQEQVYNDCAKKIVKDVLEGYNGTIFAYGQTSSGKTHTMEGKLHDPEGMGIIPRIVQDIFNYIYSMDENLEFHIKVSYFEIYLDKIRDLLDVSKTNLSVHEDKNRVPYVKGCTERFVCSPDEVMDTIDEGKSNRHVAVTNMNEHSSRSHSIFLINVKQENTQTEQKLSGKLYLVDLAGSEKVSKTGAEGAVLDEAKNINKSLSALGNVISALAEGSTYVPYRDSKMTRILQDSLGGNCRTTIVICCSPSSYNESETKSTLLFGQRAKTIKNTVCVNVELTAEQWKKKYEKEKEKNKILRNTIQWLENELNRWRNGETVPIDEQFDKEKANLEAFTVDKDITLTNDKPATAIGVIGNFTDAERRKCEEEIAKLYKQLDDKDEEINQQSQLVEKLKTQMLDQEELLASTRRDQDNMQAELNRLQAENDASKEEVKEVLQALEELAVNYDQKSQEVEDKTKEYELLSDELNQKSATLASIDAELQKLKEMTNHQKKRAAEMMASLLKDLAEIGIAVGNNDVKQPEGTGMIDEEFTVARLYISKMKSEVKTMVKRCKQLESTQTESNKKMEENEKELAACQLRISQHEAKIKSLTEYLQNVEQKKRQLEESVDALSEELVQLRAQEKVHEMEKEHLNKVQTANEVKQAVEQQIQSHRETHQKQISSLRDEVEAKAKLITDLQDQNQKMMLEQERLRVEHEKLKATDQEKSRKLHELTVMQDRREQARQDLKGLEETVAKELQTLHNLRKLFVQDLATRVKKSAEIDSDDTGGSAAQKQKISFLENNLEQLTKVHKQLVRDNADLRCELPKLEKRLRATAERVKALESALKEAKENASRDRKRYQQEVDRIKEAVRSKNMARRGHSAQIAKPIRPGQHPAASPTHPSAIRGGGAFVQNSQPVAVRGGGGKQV
Assay: microtubule gliding driven by conventional kinesin
Assay type: biochemical
Details: 200 μM
Protocol: FIG. 26. […] Conventional kinesin motility was not inhibited in the same assay. A. Model for spindle bipolarity. Plus-end directed motors, such as Eg5 are thought to be involved in the separation of the centrosomes and the establishment of a symmetric spindle axis. B. Inhibition of the kinesin Eg5 results in monastrol spindles. Microtubules, green; chromosomes, blue. Eg5 is depicted as homotetramer (9). C. […] After imaging Eg5 driven microtubule gliding in the presence of monastrol (200 μM), the same assay chamber was depleted of compound and the microtubule gliding recorded (Washout). […] D. Chemical structures of monastrol and DHP2.
Eg5 is a member of the kinesin superfamily, which includes over 100 homologous proteins involved in organelle transport, membrane organization, and assembly and maintenance of mitotic spindles (Vale et al., Annu. Rev. Cell. Dev. Biol. 13:745, 1997). To test whether monastrol affects other motor proteins, we first assayed its ability to inhibit microtubule gliding driven by conventional kinesin in vitro. The N-terminal motor domain of conventional kinesin shares 33% sequence identity with the Eg5 motor domain (Kapoor et al., Proc. Natl. Acad. Sci. USA, 1999). […] We next investigated whether monastrol disturbs the distribution of lysosomes or the Golgi apparatus in vivo. […]

Q: Which “inhibition of microtubule gliding driven by conventional kinesin” value does the source give for monastrol here?
A: no inhibition; also recorded: does not inhibit
